Laboratory results from ChEMBL document CHEMBL1152119, “4-(3-furyl)-2-(4-methylpiperazino)pyrimidines: Potent 5-HT2A receptor antagonists” (Bioorg Med Chem Lett, 1997).
The source made the active and inactive calls. No cut-off for these calls is given here.

Tests used:
[1] = biological target: T1, 5-hydroxytryptamine receptor 1A (Rattus norvegicus, UniProt P19327); test: Displacement of [3H]8-OH-DPAT binding to 5-hydroxytryptamine 1A receptor of rat brain hippocampus; format: tissue-based
T1 sequence (P19327 whole entry): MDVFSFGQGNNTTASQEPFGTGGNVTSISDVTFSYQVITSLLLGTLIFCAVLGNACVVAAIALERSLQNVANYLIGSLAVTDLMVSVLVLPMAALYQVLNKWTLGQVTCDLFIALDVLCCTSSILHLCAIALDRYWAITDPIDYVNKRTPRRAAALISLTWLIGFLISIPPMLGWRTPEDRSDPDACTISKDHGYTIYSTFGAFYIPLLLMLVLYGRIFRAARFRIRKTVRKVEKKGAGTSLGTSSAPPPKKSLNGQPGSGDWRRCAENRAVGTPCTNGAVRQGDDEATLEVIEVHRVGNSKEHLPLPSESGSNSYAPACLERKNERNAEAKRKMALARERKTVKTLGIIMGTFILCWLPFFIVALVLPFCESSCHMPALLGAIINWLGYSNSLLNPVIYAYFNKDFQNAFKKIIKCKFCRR

[2] = biological target: 5-hydroxytryptamine receptor 2A (Rattus norvegicus, UniProt P14842); test: Displacement of [3H]ketanserin from 5-hydroxytryptamine 2A receptor of rat brain cortex
[3] = tested on: Rattus norvegicus; test: Percent activity for blocking of discriminative property stimulated by (+/-) DOI in rats at 0.35 mg/kg(+/-DOI 0.35 mg/kg administered to animals pretreated with compound); format: functional
[4] = tested on: Rattus norvegicus; test: Blocking of discriminative property stimulated by DOI in rats at 0.15 mg/kg dose, activity expressed as response/min(+/-DOI 0.35 mg/kg administered to animals pretreated with compound); format: functional
[5] = tested on: Rattus norvegicus; test: Blocking of discriminative property stimulated by DOI in rats at 0.25 mg/kg dose, activity expressed as response/min(+/-DOI 0.35 mg/kg administered to animals pretreated with compound); format: functional
[6] = tested on: Rattus norvegicus; test: Percent activity for blocking of discriminative property stimulated by (+/-) DOI in rats at 0.15 mg/kg(+/-DOI 0.35 mg/kg administered to animals pretreated with compound); format: functional
[7] = tested on: Rattus norvegicus; test: Percent activity for blocking of discriminative property stimulated by (+/-) DOI in rats at 0.25 mg/kg(+/-DOI 0.35 mg/kg administered to animals pretreated with compound); format: functional
[8] = tested on: Rattus norvegicus; test: Blocking of discriminative property stimulated by DOI in rats at 0.35 mg/kg dose, activity expressed as response/min(+/-DOI 0.35 mg/kg administered to animals pretreated with compound); format: functional
[9] = tested on: Mus musculus; test: Inhibitory dose against (+/-)DOI induced (2.5 mg/kg, ip) head twitch response in mice; format: functional; conditions: read-out: ID50 (the source's name)
[10] = tested on: Rattus norvegicus; test: Blocking of discriminative property stimulated by DOI in rats at 10 mg/kg dose, activity expressed as response/min(+/-DOI 0.35 mg/kg administered to animals pretreated with compound); format: functional
[11] = tested on: Rattus norvegicus; test: Number of responding rats/number of rats to receive the compound at a dose of 10 mg/kg, +/-DOI 0.35 mg/kg was administered intraperitoneally 60 min before test; 8/8; format: functional, organism-based
[12] = tested on: Rattus norvegicus; test: Percent activity for blocking of discriminative property stimulated by (+/-) DOI in rats at 10 mg/kg(+/-DOI 0.35 mg/kg administered to animals pretreated with compound); format: functional
[13] = tested on: Rattus norvegicus; test: Number of responding rats/number of rats to receive the compound at a dose of 20 mg/kg, +/-DOI 0.35 mg/kg was administered intraperitoneally 60 min before test; 6/6; format: functional, organism-based
[14] = tested on: Rattus norvegicus; test: Blocking of discriminative property stimulated by DOI in rats at 20 mg/kg dose, activity expressed as response/min(+/-DOI 0.35 mg/kg administered to animals pretreated with compound); format: functional
[15] = tested on: Rattus norvegicus; test: Percent activity for blocking of discriminative property stimulated by (+/-) DOI in rats at 20 mg/kg(+/-DOI 0.35 mg/kg administered to animals pretreated with compound); format: functional
[16] = tested on: Rattus norvegicus; test: Percent activity for blocking of discriminative property stimulated by (+/-) DOI in rats at 1 mg/kg(+/-DOI 0.35 mg/kg administered to animals pretreated with compound); format: functional
[17] = tested on: Rattus norvegicus; test: Blocking of discriminative property stimulated by DOI in rats at 1 mg/kg dose, activity expressed as response/min(+/-DOI 0.35 mg/kg administered to animals pretreated with compound); format: functional
[18] = tested on: Rattus norvegicus; test: Number of responding rats/number of rats to receive the compound at a dose of 1 mg/kg, +/-DOI 0.35 mg/kg was administered intraperitoneally 60 min before test; 9/9; format: functional, organism-based
[19] = tested on: Rattus norvegicus; test: Number of responding rats/number of rats to receive the compound at a dose of 15mg/kg, +/-DOI 0.35 mg/kg was administered intraperitoneally 60 min before test; 7/7; format: functional, organism-based; set-up: dose 0.35 mg/kg
[20] = tested on: Rattus norvegicus; test: Percent activity for blocking of discriminative property stimulated by (+/-) DOI in rats at 15 mg/kg(+/-DOI 0.35 mg/kg administered to animals pretreated with compound); format: functional
[21] = tested on: Rattus norvegicus; test: Blocking of discriminative property stimulated by DOI in rats at 15 mg/kg dose, activity expressed as response/min(+/-DOI 0.35 mg/kg administered to animals pretreated with compound); format: functional
[22] = tested on: Rattus norvegicus; test: Number of responding rats/number of rats to receive the compound at a dose of 5 mg/kg, +/-DOI 0.35 mg/kg was administered intraperitoneally 60 min before test; 9/9; format: functional, organism-based
[23] = tested on: Rattus norvegicus; test: Blocking of discriminative property stimulated by DOI in rats at 5 mg/kg dose, activity expressed as response/min(+/-DOI 0.35 mg/kg administered to animals pretreated with compound); format: functional
[24] = tested on: Rattus norvegicus; test: Percent activity for blocking of discriminative property stimulated by (+/-) DOI in rats at 5 mg/kg(+/-DOI 0.35 mg/kg administered to animals pretreated with compound); format: functional
[25] = tested on: Rattus norvegicus; test: Number of responding rats/number of rats to receive the compound at a dose of 10mg/kg, +/-DOI 0.35 mg/kg was administered intraperitoneally 60 min before test; 6/6; format: functional, organism-based; set-up: dose 0.35 mg/kg
[26] = tested on: Rattus norvegicus; test: Number of responding rats/number of rats to receive the compound at a dose of 10 mg/kg, +/-DOI 0.35 mg/kg was administered intraperitoneally 60 min before test; 7/7; format: functional, organism-based

5-hydroxytryptamine receptor 2A, sequence (P14842 whole entry): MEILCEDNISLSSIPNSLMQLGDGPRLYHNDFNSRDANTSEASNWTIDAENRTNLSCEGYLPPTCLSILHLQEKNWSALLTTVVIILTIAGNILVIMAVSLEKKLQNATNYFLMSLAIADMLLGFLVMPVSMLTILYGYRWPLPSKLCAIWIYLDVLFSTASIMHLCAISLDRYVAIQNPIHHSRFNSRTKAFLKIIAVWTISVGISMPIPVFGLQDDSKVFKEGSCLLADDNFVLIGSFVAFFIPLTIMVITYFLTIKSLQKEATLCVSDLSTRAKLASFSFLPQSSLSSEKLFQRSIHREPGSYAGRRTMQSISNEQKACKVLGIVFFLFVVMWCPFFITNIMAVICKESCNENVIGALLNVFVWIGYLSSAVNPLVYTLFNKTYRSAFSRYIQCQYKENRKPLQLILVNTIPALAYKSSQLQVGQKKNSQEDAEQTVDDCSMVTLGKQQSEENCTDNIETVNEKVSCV

Row | Structure (SMILES) | Ki [1] | Ki [2] | ED50 [9] | Response [10] | Activity [12] | other results
1 | CN1CCN(c2nccc(-c3ccco3)n2)CC1 | 810 nM | 745 nM | – | – | – | –
2 | COc1cc(CC(C)N)c(OC)cc1I (racemic) | – | – | – | – | – | Activity [3]: 100%; Response [4]: 81.3 min⁻¹; Response [5]: 79.5 min⁻¹; Activity [6]: 37.5%; Activity [7]: 63.1%; Response [8]: 74.7 min⁻¹
3 | CN1CCN(c2nccc(-c3cccs3)n2)CC1 | 484 nM | 208 nM | – | – | – | –
4 | CN1CCN(c2nccc(-c3ccccc3)n2)CC1 | 613 nM | 2100 nM | – | – | – | –
5 | CN1CCN(c2nc(-c3ccoc3)cc(-c3ccco3)n2)CC1 | 415 nM | 13 nM | 2.7 mg/kg | 85.1 min⁻¹ | 4% | No. of animals [11]: Active
6 | CN1CCN(c2nccc(-c3ccoc3)n2)CC1 | 700 nM | 10 nM | 9.7 mg/kg | – | – | No. of animals [13]: Active; Response [14]: 84.7 min⁻¹; Activity [15]: 6.6%
7 | Cc1cc(-c2ccoc2)nc(N2CCN(C)CC2)n1 | 265 nM | 50 nM | – | – | – | –
8 | CN1CCC(=C2c3ccccc3C=Cc3ccccc32)CC1 [CYPROHEPTADINE] | – | – | 0.4 mg/kg | – | – | Activity [16]: 7.1%; Response [17]: 85.8 min⁻¹; No. of animals [18]: Active
9 | CN1CCN(c2nc(-c3ccoc3)cc(-c3cccs3)n2)CC1 | 2240 nM | 10 nM | 4.2 mg/kg | 60.3 min⁻¹ | 47.3% | No. of animals [19]: Active; Activity [20]: 11.2%; Response [21]: 66.2 min⁻¹; No. of animals [11]: Active
10 | CN1CCN(c2nc(-c3cccs3)cc(-c3cccs3)n2)CC1 | 972 nM | 8 nM | – | – | – | –
11 | CN1CCN(c2nc(-c3ccoc3)cc(-c3ccoc3)n2)CC1 | 621 nM | 8 nM | 2.4 mg/kg | 72.5 min⁻¹ | 2.8% | No. of animals [22]: Active; Response [23]: 84.3 min⁻¹; Activity [24]: 31.1%; No. of animals [25]: Active
12 | CN1CCN(c2nc(-c3ccccc3)cc(-c3ccoc3)n2)CC1 | 1340 nM | 9 nM | 3.9 mg/kg | 86.6 min⁻¹ | 7.2% | No. of animals [26]: Active
